Measured values as given in publication PMC9655717, “New Molecules of Diterpene Origin with Inhibitory Properties toward α-Glucosidase” (International Journal of Molecular Sciences, 2022).
Values after ≈ are worked out from the molar mass of the structure shown. Like-named read-outs stand apart in the source and are kept apart here.

What was measured:
[1] = biological target: T1, yeast α-GLy (α-glucosidase, Sigma G0660) (Saccharomyces cerevisiae, UniProt P53341); experiment: biochemical; assay type: biochemical; settings: for IC50 / α-GLy inhibitory activity, in words: yeast α-glucosidase; for IC50: 37°C, pH 6.8
T1 construct: purchased Sigma G0660
T1 sequence (P53341 whole entry): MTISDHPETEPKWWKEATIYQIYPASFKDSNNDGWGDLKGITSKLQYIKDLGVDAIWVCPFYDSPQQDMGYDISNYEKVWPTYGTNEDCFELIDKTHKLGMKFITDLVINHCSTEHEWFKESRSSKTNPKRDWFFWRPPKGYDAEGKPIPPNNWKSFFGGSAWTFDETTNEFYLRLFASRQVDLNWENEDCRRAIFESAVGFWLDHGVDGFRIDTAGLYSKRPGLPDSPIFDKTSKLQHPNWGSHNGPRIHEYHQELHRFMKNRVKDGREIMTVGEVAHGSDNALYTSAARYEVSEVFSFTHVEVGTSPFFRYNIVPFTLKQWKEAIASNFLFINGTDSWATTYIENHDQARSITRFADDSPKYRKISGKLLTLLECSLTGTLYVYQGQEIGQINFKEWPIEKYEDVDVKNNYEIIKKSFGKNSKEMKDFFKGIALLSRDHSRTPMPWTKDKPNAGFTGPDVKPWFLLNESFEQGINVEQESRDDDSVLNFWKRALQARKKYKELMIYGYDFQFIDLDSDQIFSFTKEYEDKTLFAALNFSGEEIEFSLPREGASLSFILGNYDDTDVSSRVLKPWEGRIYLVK
Description: S1. Materials and Methods […]
glucosidase inhibition assay. α-Glucosidase enzyme inhibition assay was carried out in a 96-well microplate. The method’s principle based on the hydrolyzed reaction of 4-nitrophenyl-α-D-glucopiranoside with α-glucosidase enzyme into yellow 4- […]
p-Nitrophenyl α-D-Glucoside a- Gl ucosidas e α-D-Glucose + p- Nitrophenol α-Glucosidase inhibitory activity assay was performed following the modified method of Pistia Brueggeman and Hollingsworth with slight modification. Quinopimaric […]
concentrations of 256, 64, 16, 4 and 1 µg/mL. In a 96-well plate, a reaction mixture containing 20 μL of phosphate buffer (100 mM; pH 6.8), 20 μL of α-glucosidase (0.3 U/mL, Sigma G0660) (this concentration was determined by a series of α-glucosidase […]
linearity between the enzyme concentration and the absorbance of yellow color mixture after reaction which was approximately 5-fold higher than the back ground and at least […]
concentrations was pre-incubated for 10 min at 37°C. Then 20 μL of […] p-nitrophenyl α-D-glucopyranoside (Sigma N1377) was added to the mixture as a substrate. After further incubation at 37°C for 30 min, the reaction was stopped by adding 80 μL of 0.1 […]
solution were prepared using the phosphate buffer […]; pH 6.8. […]
as a positive control and water as negative control. The yellow color produced was quantitated by colorimetric analysis and reading the absorbance at 410 nm. Each experiment was performed in triplicates, along with appropriate blanks. The solvent DMSO was use as negative control to evaluate its effect on α-glucosidase activity. […]
or substrate in negative control. Back ground was determined by volume of buffer as […]
The % inhibition has been obtained using the formula:
% inhibition = {Absorbance (control) –Absorbance (sample)}/Absorbance (control) IC50 value is defined as the concentration of samples inhibiting 50% of α-glucosidase activity under the stated assay conditions. […]

[2] = DPPH radical scavenging assay; settings: DPPH 0.1 mM in methanol, 25°C, 30 min
Description: DPPH radical scavenging assay as described by Ha. The hydrogen atom donating ability of the plant extractives was determined by the decolorization of methanol solution of 2,2-diphenyl-1-picrylhydrazyl (DPPH). DPPH produces purple color in methanol solution and fades to shades of yellow color in the presence of antioxidants. […]
DPPH (0.1 mM) was diluted in methanol. 200 μL of this solution was added to 1.3 μL of various concentrations of compounds in DMSO (256.0, 64.0, 16.0, and 4.0 μg/mL). The mixture was performed by a 96-well plate at 25 °C in 30 min. Then, absorbance was determined by Epoch™ Microplate Spectrophotometer (at 517 nm). The percentage of DPPH quenching activity was computed by the following formula:
Inhibitory percentage SC (%) = [(Ao - A1)/Ao] × 100. where AO was defined as the absorbance of control reaction, and A1 represented for the absorbance in the presence of test or standard sample. Each experiment was repeated three times. Quercetin was used as a reference compound. […]

[3] = IC50 ± SE, α-glucosidase inhibition
[4] = read-out: IC50 ± SE, α-glucosidase inhibition

SMILES | IC50 [1, 3] | further results
Cc1[nH]c2c3c(c(O)cc2c1C#N)[C@H]1C[C@@H]2[C@@]4(C)CCC[C@@](C)(C(=O)O)[C@@H]4CC[C@@]32C=C1C(C)C [Compound 44, 1′-Cyano-1-hydroxy-13-isopropyl-7,10a,2′-trimethyl-5,6,6b,7,8,9,10,10a,10b,11,12,13-dodecahydro-12,4b-ethenophenanthro [2,1-g]indole-7-carboxylic acid] | 68.22 ± 0.03 µM | α-GLy inhibitory activity, in words [1]: very good activity; melting point: 127 to 129 °C
C#CCOC(=O)C1(C)CCCC2(C)C1CCC13C=C(C(C)C)C(CC12)c1c(O)cc2c(C(=O)OCC)c(C)[nH]c2c13 (stereo not drawn) [Compound 46, Ethyl 7-propynyl 1-hydroxy-13-isopropyl-7,10a,2′-trimethyl-5,6,6b,7,8,9,10,10a,10b, 11,12,13-dodecahydro-12,4b-ethenophenanthro [2,1-g]indole-7,1′-dicarboxylate] | > 255 µM | melting point: 98 to 100 °C
CCOC(=O)c1c(C)[nH]c2c3c(c(O)cc12)C1CC2C3(C=C1C(C)C)CCC1C(C)(C(=O)O)CCCC12C (stereo not drawn) [Compound 42, 1-Hydroxy-13-isopropyl-1′-(ethoxycarbonyl)-7,10a,2′-trimethyl-5,6,6b,7,8,9,10,10a, 10b,11,12,13-dodecahydro-12,4b-ethenophenanthro-[2,1-g]indole-7-carboxylic acid] | 2.52 ± 0.34 µM | α-GLy inhibitory activity, in words [1]: very good activity; melting point: 131 to 133 °C
CC(C)C1=C[C@@]23CC[C@H]4[C@](C)(CO)CCC[C@]4(C)[C@H]2C[C@@H]1[C@@H]1[C@H]3[C@@H](O)CC[C@@H]1O [Compound 2] | > 255 µM | 
COC(=O)[C@]1(C)CCC[C@]2(C)[C@H]3C[C@H]4C(C(C)C)=C[C@]3(CC[C@H]21)[C@H]1[C@@H]4[C@@H](O)CC[C@@H]1O [Compound 21] | > 255 µM | 
COC(=O)[C@]1(C)CCC[C@]2(C)[C@H]3C[C@@H]4[C@H]5[C@@H]6CC(=Cc7ccccc7)C(=O)[C@H]5[C@@]3(CC[C@H]21)C[C@@]4(C(C)C)O6 [Compound 26] |  | IC50 [1, 4]: 13.08 ± 0.01 µM
CC(C)C1=C[C@@]23CC[C@@H]4[C@](C)(CCC[C@@]4(C)C(=O)O)[C@H]2C[C@@H]1[C@H]1C(=O)C=CC(=O)[C@H]13 [Compound 1, quinopimaric acid] | 59.59 ± 0.18 µM | times more active (potent) than acarbose ([1]; ratio of α-GLy IC50 values versus acarbose): three times higher
COC(=O)[C@]1(C)CCC[C@]2(C)[C@H]3C[C@@H]4[C@H]5[C@@H]6CC(=Cc7cccnc7)C(=O)[C@H]5[C@@]3(CC[C@H]21)C[C@@]4(C(C)C)O6 [Compound 30] |  | IC50 [1, 4]: 38.8 ± 0.33 µM
CC(C)C1=C[C@@]23CC[C@@H]4[C@](C)(CCC[C@@]4(C)C(=O)NCCCCNCCCN)[C@H]2C[C@@H]1[C@H]1C(=O)CCC(=O)[C@H]13 [Compound 9] |  | IC50 [1, 4]: 35.2 ± 0.71 µM
COC(=O)[C@]1(C)CCC[C@]2(C)[C@H]3C[C@H]4C(C(C)C)=C[C@]3(CC[C@H]21)[C@@H]1C(=O)C(=Cc2ccco2)C[C@H](O)[C@@H]14 [Compound 7] |  | IC50 [1, 4]: 2.5 ± 0.011 µM
CC(C)C1=C[C@@]23CC[C@@H]4[C@](C)(CCC[C@@]4(C)C(=O)O)[C@H]2C[C@@H]1[C@H]1C(=O)CCC(=O)[C@H]13 [Compound 8, 2,3-dihydroquinopimaric acid] | 35.6 ± 0.92 µM | 
O=c1c(O)c(-c2ccc(O)c(O)c2)oc2cc(O)cc(O)c12 [Quercetin, reference compound] |  | IC50 values, antioxidant test (DPPH) [2]: 8.01 ± 0.15 mg/L (≈ 26.5 µM)
COC(=O)[C@]1(C)CCC[C@]2(C)[C@H]3C[C@H]4C(C(C)C)=C[C@]3(CC[C@H]21)[C@@H]1C(=O)CC[C@H](OCCC#N)[C@@H]14 [Compound 16] | > 255 µM | 
COC(=O)[C@]1(C)CCC[C@]2(C)[C@H]3C[C@H]4C(C(C)C)=C[C@]3(CC[C@H]21)[C@@H]1C(=O)CC[C@H](OC(C)=O)[C@@H]14 [Compound 15] | > 255 µM | 
CC(C)C1=CC23CCC4C(C)(C(=O)O)CCCC4(C)C2CC1C1=C3C(=O)C=CC1=O (stereo not drawn) [Compound 40, 1a,4a-dehydroquinopimaric acid] | 7.09 ± 0.12 µM | 
COC(=O)[C@]1(C)CCC[C@]2(C)[C@H]3C[C@H]4C(C(C)C)=C[C@]3(CC[C@H]21)[C@H]1[C@@H]4[C@@H](OCCC(N)=NO)CC[C@@H]1OCCC(N)=NO [Compound 23] | > 255 µM | 
CC(C)C1=C[C@@]23CC[C@@H]4[C@](C)(CCC[C@@]4(C)C(=O)N4CCCNCC4)[C@H]2C[C@@H]1[C@H]1C(=O)CCC(=O)[C@H]13 [Compound 11] | > 255 µM | 
COC(=O)[C@]1(C)CCC[C@]2(C)[C@H]3C[C@@H]4[C@H]5[C@@H]6CCC(=NO)[C@H]5[C@@]3(CC[C@H]21)C[C@@]4(C(C)C)O6 [Compound 4] | > 255 µM | 
COC(=O)[C@]1(C)CCC[C@]2(C)[C@H]3C[C@@H]4[C@H]5[C@@H]6CC(=Cc7ccc(OC)c(OC)c7)C(=O)[C@H]5[C@@]3(CC[C@H]21)C[C@@]4(C(C)C)O6 [Compound 28] |  | IC50 [1, 4]: 12.7 ± 0.21 µM
COC(=O)[C@]1(C)CCC[C@]2(C)[C@H]3C[C@@H]4[C@H]5[C@@H]6CCC(=O)[C@H]5[C@@]3(CC[C@H]21)C[C@@]4(C(C)C)O6 [Compound 3, 1β,13α-epoxy methyldihydroquinopimarate] | > 255 µM | 
COC(=O)c1c(C)[nH]c2c3c(c(OC(C)=O)cc12)[C@H]1C[C@@H]2[C@@]4(C)CCC[C@@](C)(C(=O)OC)[C@@H]4CC[C@@]32C=C1C(C)C [Compound 37] |  | IC50 [1, 4]: 7.28 ± 0.4 µM
COC(=O)C(C)NC(=O)[C@]1(C)CCC[C@]2(C)[C@H]3C[C@H]4C(C(C)C)=C[C@]3(CC[C@H]21)[C@@H]1C(=O)CCC(=O)[C@@H]14 (stereo partly drawn) [Compound 12] | > 255 µM | 
COC(=O)[C@]1(C)CCC[C@]2(C)[C@H]3C[C@H]4C(C(C)C)=C[C@]3(CC[C@H]21)[C@H]1[C@@H]4[C@@H](OC(=O)c2cccnc2)CC[C@@H]1OC(=O)c1cccnc1 [Compound 24] | > 255 µM | 
COC(=O)[C@]1(C)CCC[C@]2(C)[C@H]3C[C@H]4C(C(C)C)=C[C@]3(CC[C@H]21)[C@@H]1C(=O)CC[C@H](OC(=O)c2cccnc2)[C@@H]14 [Compound 19] | > 255 µM | 
COC(=O)[C@]1(C)CCC[C@]2(C)[C@H]3C[C@H]4C(C(C)C)=C[C@]3(CC[C@H]21)[C@H]1[C@@H]4[C@@H](OCCC#N)CC[C@@H]1OCCC#N [Compound 22] | > 255 µM | 
COC(=O)c1c(C)[nH]c2c3c(c(OCCC#N)cc12)C1CC2C3(C=C1C(C)C)CCC1C(C)(C(=O)OC)CCCC12C (stereo not drawn) [Compound 47, Methyl 1-(8′-cyanoethoxy)-13-isopropyl-1′-(ethoxycarbonyl)-7,10a,2′-trimethyl-5,6,6b,7,8,9,10,10a,10b,11,12,13-dodecahydro-12,4b-ethenophenanthro [2,1-g]indole-7-carboxylate] | 4.95 ± 0.25 µM | melting point: 127 to 129 °C
COC(=O)C(CCSC)NC(=O)[C@]1(C)CCC[C@]2(C)[C@H]3C[C@H]4C(C(C)C)=C[C@]3(CC[C@H]21)[C@@H]1C(=O)CCC(=O)[C@@H]14 (stereo partly drawn) [Compound 13] | > 255 µM | 
COC(=O)[C@]1(C)CCC[C@]2(C)[C@H]3C[C@H]4C(C(C)C)=C[C@]3(CC[C@H]21)[C@@H]1C(=O)CC[C@H](O)[C@@H]14 [Compound 14] | > 255 µM | 
COC(=O)[C@]1(C)CCC[C@]2(C)[C@H]3C[C@@H]4[C@H]5[C@@H]6Cc7cn[nH]c7[C@H]5[C@@]3(CC[C@H]21)C[C@@]4(C(C)C)O6 [Compound 31] | > 255 µM | 
